Assay results published in ChEMBL document CHEMBL5126665, “A Dimerosesquiterpene and Sesquiterpene Lactones from Artemisia argyi Inhibiting Oncogenic PI3K/AKT Signaling in Melanoma Cells” (J Nat Prod, 2022).
Activity calls are given as the source filed them. No cut-off for these calls is given here.

Assays:
Assay type in all cases: cell-based
[1] = Inhibition of PI3K/AKT signalling pathway in human MM121224 cells stably expressing H2B-mTurquoise, ERK-KTR-mScarlet and FoxO3a-KTR-mNeonGreen fluorophore assessed as AKT activity by high-content screening microscopic analysis
MM121224 [2] = test: Inhibition of PI3K/AKT signalling pathway in human MM121224 cells assessed as downregulation of AKT phosphorylation at Ser473 residue by immunostaining based analysis
MM121224 [3] = test: Inhibition of PI3K/AKT signalling pathway in human MM121224 cells stably expressing H2B-mTurquoise, ERK-KTR-mScarlet and FoxO3a-KTR-mNeonGreen fluorophore assessed as AKT activity at 25 uM by high-content screening microscopic analysis
[4] = Toxicity against human MM121224 cells at 50 to 200 uM by high-content screening microscopic analysis; details: mm121224, 200 µM, dose 50-200 µM

Row | SMILES | IC50 [1] | also measured
1 | C=C1C(=O)O[C@@H]2C3=C(C)C(=O)C[C@@H](O)[C@]3(C)CC[C@@H]12 | 11.2 µM | inhibition (MM121224 [2]): Active
2 | C=C1C(=O)O[C@H]2[C@H]1[C@@H](OC(C)=O)C=C(C)[C@]1(O)C[C@H]3O[C@@]3(C)[C@H]21 | 22.9 µM | 
3 | C=C1C(=O)O[C@H]([C@H]2C(=O)C=C[C@@]2(C)O)[C@H]1CCC(C)=O | 38 µM | 
4 | C=C1C(=O)O[C@H]([C@@H]2C(=O)C=C[C@]2(C)O)[C@H]1CCC(C)=O [SECOTANAPARTHOLIDE B] | 22.5 µM | 
5 | C=C1C(=O)O[C@H]2[C@H]1[C@@H](OC(=O)CC(C)C)CC(C)=C1C[C@H]3O[C@@]3(C)[C@@H]12 | 16.9 µM | 
6 | C=C1C(=O)O[C@@H]2[C@H]3C(C)=CC[C@@H](O)[C@]3(C)CC[C@@H]12 [SANTAMARIN] | 52.7 µM | 
7 | C=C(C(=O)OC)[C@@H]1CC[C@]2(C)C(=C(C)C(=O)C[C@H]2O)[C@H]1O | 22.1 µM | inhibition (MM121224 [2]): Active
8 | C=C1C(=O)O[C@H]2[C@H]1[C@@H](OC(C)=O)CC(C)=C1C[C@H]3O[C@@]3(C)[C@@H]12 | 25.9 µM | 
9 | C=C1C(=O)O[C@H]2[C@H]1[C@@H](OC(=O)C(C)CC)C=C(C)[C@]1(O)C[C@@H](O)[C@@](C)(O)[C@H]21 (stereo partly specified) | 24.6 µM | 
10 | C=C1C(=O)O[C@H]2[C@H]1[C@@H](OC(=O)CC(C)C)CC(=C)[C@]1(O)C[C@H]3O[C@@]3(C)[C@H]21 | 14.2 µM | 
11 | C=C1C(=O)O[C@H]2[C@H]1[C@@H](OC(C)=O)CC(=C)[C@]1(O)C[C@H]3O[C@@]3(C)[C@H]21 | 46.2 µM | 
12 | C=C1C(=O)O[C@H]2[C@H]1[C@@H](OC(=O)CC(C)C)C=C(C)[C@]1(O)C[C@@H](O)[C@@](C)(O)[C@H]21 | 27.9 µM | 
13 | C=C1C(=O)O[C@@H]2[C@H]3C(C)=CC(=O)C3=C(C)C[C@H](O)[C@@H]12 | 15.1 µM | inhibition (MM121224 [2]): Active
14 | C=C1C(=O)O[C@H]2[C@H]1[C@@H](OC(=O)C(C)CC)CC(=C)[C@]1(O)C[C@H]3O[C@@]3(C)[C@H]21 (stereo partly specified) | 14.2 µM | 
15 | C=C1C(=O)O[C@H](C2=C(C)[C@H](OC(C)=O)CC2=O)[C@H]1CCC(C)=O | 25.1 µM | inhibition (MM121224 [2]): Active

Continued, in another order:

Row | IC50 [1] | SMILES | also measured
16 | 23.6 µM | C=C1C(=O)O[C@@H]2[C@H]3C(C)=CC(=O)C3=C(C)CC[C@@H]12 [DEHYDROLEUCODIN] | 
17 | 119 µM | C=C1C(=O)O[C@H]2[C@H]1CC[C@@](C)(O)[C@]13O[C@H]1[C@H]1O[C@@]1(C)[C@H]23 [ARTECANIN] | 
18 | 15.3 µM | C=C1C(=O)O[C@@H]2[C@H]3C(C)=CC(=O)C3=C(C)C[C@H](OC(=O)CC(C)C)[C@@H]12 | 
19 | 38.4 µM | C=C1C(=O)O[C@H]2[C@H]1CC[C@@](C)(O)[C@@]13O[C@@H]1[C@@H]1O[C@]1(C)[C@H]23 | 
20 | 11 µM | C=C1C(=O)O[C@@H]2[C@H]3C(C)=CC(=O)C3=C(C)C[C@H](OC(C)=O)[C@@H]12 | 
21 | 27.7 µM | C=C1C(=O)O[C@H]2[C@H]1CC[C@@](C)(O)[C@@]13C=C[C@](C)([C@H]4[C@H](CC(=O)OC)[C@H](C/C=C\CC)C(=O)[C@H]41)[C@H]23 | inhibition (MM121224 [2]): Active
22 | 27.7 µM | C=C1C(=O)O[C@@H]2[C@H]3C(C)=CC(=O)C3=C(C)C[C@H](OC(=O)C(C)CC)[C@@H]12 (stereo partly specified) | 
23 | 35.7 µM | C=C1C(=O)O[C@@H]2[C@@H]3[C@@]4(C=C[C@@]3(C)[C@]3(C4)C(=O)O[C@@H]4[C@H]5C(C)=CC(=O)C5=C(C)C[C@H](OC(C)=O)[C@H]43)[C@](C)(O)CC[C@@H]12 | inhibition (MM121224 [2]): Active
24 | 14.7 µM | C=C1C(=O)O[C@@H]2[C@@H]3[C@@]4(C=C[C@@]3(C)[C@@]3(C4)C(=O)O[C@@H]4[C@H]5C(C)=CC(=O)C5=C(C)C[C@H](OC(C)=O)[C@H]43)[C@](C)(O)CC[C@@H]12 | 
25 | 8.9 µM | C=C1C(=O)O[C@@H]2[C@H]3C(C)=CC(=O)C3=C(C)C[C@H](OC(=O)C=C(C)C)[C@@H]12 | inhibition (MM121224 [3]): Active; Activity [4]: Toxic; inhibition (MM121224 [2]): Active
26 | 9.8 µM | C=C1C(=O)O[C@@H]2[C@H]3C(C)=CC(=O)C3=C(C)C[C@H](OC(=O)/C(C)=C\C)[C@@H]12 | 
27 | 26.5 µM | C=C1C(=O)O[C@H]2[C@H]1CC[C@@](C)(O)[C@]13C=C[C@@](C)([C@H]21)[C@@]1(C3)C(=O)C[C@]2(C(C)C)C[C@@H]21 | 
